The results in this text go back to PMC7381729, “A new class of PentixaFor- and PentixaTher-based theranostic agents with enhanced CXCR4-targeting efficiency” (Theranostics, 2020).

SMILES strings stand for the structures. Where two headings read alike, the source gives them in different places. Where a SMILES comes first, the peptide text is derived from it. Side-chain parts run from the residue outwards. [ ]: non-standard residue; d: D form. The star is where a group is joined. DOTA = O=C(O)CN1CCN(CC(=O)O)CCN(CC(=O)*)CCN(CC(=O)O)CC1; dTyr(3-I) = N[C@H](Cc1ccc(O)c(I)c1)C(=O)O; 2Nal = N[C@@H](Cc1ccc2ccccc2c1)C(=O)O; dNMeOrn = CN[C@H](CCCN)C(=O)O; 4Amb = NCc1ccc(C(=O)O)cc1; 4Abz = Nc1ccc(C(=O)O)cc1

Data set [1] concerns Daudi (human B-cell lymphoma) xenograft bearing CB-17 SCID mice. Briefly: Biodistribution in Daudi xenograft bearing mice. It counts as in vivo, mouse. To be noted: for Biodistribution blood / Biodistribution liver / Biodistribution adrenals / Biodistribution lung / Biodistribution spleen / Biodistribution stomach / Biodistribution tumor (Daudi xenograft) / Biodistribution brain / Biodistribution femur / Biodistribution heart / Biodistribution kidney / Biodistribution muscle / Biodistribution pancreas / Biodistribution small intestine: i.v., means ± SD. The procedure:
(§1) The biodistribution of selected compounds was investigated in Daudi (human B-cell lymphoma) xenograft bearing female CB-17 SCID mice (6-8 weeks, Charles River, Sulzfeld, Germany), [29]. All animal experiments were performed in accordance with current animal welfare regulations in Germany (approval #55.2-1-54-2532-71-13).
(§2) Animals (n=4-5 per group) were injected intravenously with 5-10 MBq (0.08-0.11 nmol peptide per mouse) of the respective ^68Ga- and^ 177Lu-labeled CXCR4 ligands in PBS (100 µL) into the tail vein under isoflurane anesthesia. CXCR4-specificity of binding was determined by coinjection of 50 µg AMD3100 per mouse. The animals were sacrificed 1, 6 and 48h post injection (p.i.), and the organs of interest were dissected. The radioactivity was measured in weighted tissue samples using a γ-counter. Data are expressed in % ID/g tissue (mean ± SD).

Data set [2] is described as follows: Lipophilicity, modified shake-flask method. In kind it is physicochemical. To be noted: O/PBS, radiolabeled compound, means ± SD (n=6). The procedure: The lipophilicity (log PO/PBS) of the ^68Ga- and ^177Lu-labeled compounds in this study was determined via a modified shake-flask method.
A short description of data set [3]: Biodistribution in Daudi xenograft bearing mice. In kind it is in vivo, mouse. To be noted: female, CB-17 SCID, mouse, iv, total radioactivity, 48h p.i., means ± SD, n=4-5 animals. Here is the method:
as §1, §2

[4] abbreviates: 1h p.i., tracer only, γ-counter, n=4-5 (68Ga: n=4).

In the case of `C[C@@H](NC(=O)[C@@H](CCCNC(=N)N)NC(=O)CN1CCN(CC(=O)O)CCN(CC(=O)O)CCN(CC(=O)O)CC1)C(=O)Nc1ccc(C(=O)NCCC[C@@H]2C(=O)N[C@@H](CCCNC(=N)N)C(=O)N[C@@H](Cc3ccc4ccccc4c3)C(=O)NCC(=O)N[C@H](Cc3ccc(O)cc3)C(=O)N2C)cc1` [[^68Ga]DOTA-r-a-ABA-CPCR4] [metal not drawn] (cyclo([2Nal]G[dY][dNMeOrn]([4Abz-dA-dR-DOTA])R)), in data set [1] (setting [4]), the Biodistribution blood was determined as 3.95 ± 0.89 %iD/g and the Biodistribution liver was 5.63 ± 0.51 %iD/g. Also, in data set [2], the “log PO/PBS” value is reported as -3.6 ± 0.06.
For `C[C@@H](NC(=O)[C@@H](CCCNC(=N)N)NC(=O)CN1CCN(CC(=O)O)CCN(CC(=O)O)CCN(CC(=O)O)CC1)C(=O)Nc1ccc(C(=O)NCCC[C@@H]2C(=O)N[C@@H](CCCNC(=N)N)C(=O)N[C@@H](Cc3ccc4ccccc4c3)C(=O)NCC(=O)N[C@H](Cc3ccc(O)c(I)c3)C(=O)N2C)cc1` [[^68Ga]DOTA-r-a-ABA-iodoCPCR4] [metal not drawn] (cyclo([2Nal]G[dTyr(3-I)][dNMeOrn]([4Abz-dA-dR-DOTA])R)), in data set [1] (setting [4]), the Biodistribution adrenals stood at 1.51 ± 0.18 %iD/g, the Biodistribution liver was found to be 5.66 ± 0.40 %iD/g, the Biodistribution lung stood at 2.91 ± 0.28 %iD/g and the Biodistribution spleen turned out to be 3.02 ± 0.46 %iD/g. In data set [1] (setting [4]), the Biodistribution stomach amounted to 0.93 ± 0.15 %iD/g and the “Biodistribution tumor (Daudi xenograft)” value is reported as 8.32 ± 1.30 %iD/g. Further, in data set [2], the “log PO/PBS” value was -3.3 ± 0.02.
One may read the logD as the decadic logarithm of the distribution of all forms, ionised or not, between an organic phase and buffer at a given pH. Higher therefore signals higher lipophilicity. In data set [1] (1h p.i., tracer only, γ-counter, n=4-5), `CN1C(=O)[C@@H](Cc2ccc(O)c(I)c2)NC(=O)CNC(=O)[C@H](Cc2ccc3ccccc3c2)NC(=O)[C@H](CCCNC(=N)N)NC(=O)[C@H]1CCCNC(=O)c1ccc(CNC(=O)CN2CCN(CC(=O)O)CCN(CC(=O)O)CCN(CC(=O)O)CC2)cc1` [[^177Lu]PentixaTher, cyclo(D-3-iodo-Tyr^1-D-[NMe]Orn^2(AMBS-([^177Lu]DOTA)-Arg^3-Nal^4-Gly^5), metal not drawn, reference compound] (cyclo([dTyr(3-I)][dNMeOrn]([4Amb-DOTA])R[2Nal]G)) gave a Biodistribution brain of 0.05 ± 0.01 %iD/g. For the same compound, in data set [1] (setting [4]), the Biodistribution adrenals is 1.5 ± 0.6 %iD/g, the Biodistribution femur is 0.6 ± 0.2 %iD/g, the Biodistribution heart stood at 0.9 ± 0.3 %iD/g and the Biodistribution kidney stood at 3.4 ± 0.6 %iD/g. In data set [1] (setting [4]), this compound came in with a Biodistribution liver of 10.3 ± 0.8 %iD/g, a Biodistribution lung of 2.5 ± 0.7 %iD/g, a Biodistribution muscle of 0.3 ± 0.1 %iD/g and a Biodistribution pancreas of 0.4 ± 0.1 %iD/g. Moreover, in data set [1] (setting [4]), the Biodistribution small intestine worked out at 0.9 ± 0.2 %iD/g, the Biodistribution spleen is recorded as 1.8 ± 0.3 %iD/g, the Biodistribution stomach was determined as 1.2 ± 0.3 %iD/g and the “Biodistribution tumor (Daudi xenograft)” value is listed as 12.4±3.7 %iD/g. In data set [1] (6h p.i., n=4-5), this compound registered a Biodistribution adrenals of 0.64 ± 0.13 %iD/g, a Biodistribution blood of 0.09 ± 0.01 %iD/g, a Biodistribution brain of 0.02 ± 0.005 %iD/g and a Biodistribution femur of 0.23 ± 0.02 %iD/g. In data set [1] (6h p.i., n=4-5), this compound had a Biodistribution heart of 0.18 ± 0.02 %iD/g, a Biodistribution kidney of 2.52 ± 0.33 %iD/g, a Biodistribution liver of 9.59 ± 0.69 %iD/g and a Biodistribution lung of 0.42 ± 0.06 %iD/g. In data set [1] (6h p.i., n=4-5), the Biodistribution muscle turned out to be 0.06 ± 0.01 %iD/g, the Biodistribution pancreas turned out to be 0.09 ± 0.01 %iD/g, the Biodistribution small intestine worked out at 0.22 ± 0.04 %iD/g and the Biodistribution spleen is 1.35 ± 0.41 %iD/g. For the same compound, in data set [1] (6h p.i., n=4-5), the Biodistribution stomach was determined as 0.21 ± 0.01 %iD/g and the “Biodistribution tumor (Daudi xenograft)” value was determined as 6.79 ± 0.68 %iD/g. Further, the “Initial activity retained in the Daudi xenografts after 48h” value in data set [1] (48h p.i. relative to early time point) is 25%. In data set [1] (48h p.i., n=4-5), this compound came in with a Biodistribution adrenals of 0.56 ± 0.08 %iD/g, a Biodistribution blood of 0.02 ± 0.001 %iD/g, a Biodistribution brain of 0.007 ± 0.002 %iD/g and a Biodistribution femur of 0.22 ± 0.05 %iD/g. In data set [1] (48h p.i., n=4-5), this compound came in with a Biodistribution heart of 0.11 ± 0.01 %iD/g, a Biodistribution kidney of 1.20 ± 0.13 %iD/g, a Biodistribution liver of 8.25 ± 2.23 %iD/g and a Biodistribution lung of 0.21 ± 0.06 %iD/g. In data set [1] (48h p.i., n=4-5), this compound displayed a Biodistribution muscle of 0.04 ± 0.005 %iD/g, a Biodistribution pancreas of 0.08 ± 0.01 %iD/g, a Biodistribution small intestine of 0.11 ± 0.02 %iD/g and a Biodistribution spleen of 1.58 ± 0.33 %iD/g. In addition, in data set [1] (48h p.i., n=4-5), the Biodistribution stomach is recorded as 0.12 ± 0.02 %iD/g and the “Biodistribution tumor (Daudi xenograft)” value is reported as 3.27 ± 0.41 %iD/g. In addition, the tissue to tissue ratio at 48 h in data set [3] (tumor / blood, read-out: Tumor/organ ratio t/blood) was found to be 201 ± 27. In addition, the tissue to tissue ratio at 48 h in data set [3] (tumor / colon, read-out: Tumor/organ ratio t/colon) was found to be 13 ± 5. For the same compound, in data set [3] (tumor / heart, read-out: Tumor/organ ratio t/heart), the tissue to tissue ratio at 48 h was 31 ± 4. Further, the tissue to tissue ratio at 48 h in data set [3] (tumor / kidney, read-out: Tumor/organ ratio t/kidney) turned out to be 2.7 ± 0.4. Besides, the tissue to tissue ratio at 48 h in data set [3] (tumor / lung, read-out: Tumor/organ ratio t/lung) came to 16 ± 5. For the same compound, the tissue to tissue ratio at 48 h in data set [3] (tumor / muscle, read-out: Tumor/organ ratio t/muscle) is 85 ± 15. Also, the tissue to tissue ratio at 48 h in data set [3] (tumor / small intestine, read-out: Tumor/organ ratio t/small intestine) turned out to be 29 ± 6. The tissue to tissue ratio at 48 h in data set [3] (tumor / spleen, read-out: Tumor/organ ratio t/spleen) was 2.1 ± 0.5. In addition, the tissue to tissue ratio at 48 h in data set [3] (tumor / stomach, read-out: Tumor/organ ratio t/stomach) amounted to 27 ± 6. In addition, the log distribution coefficient (logD) in data set [2] (octanol/PBS) is -1.8 ± 0.2.
